Experimental data published in article PMC10920779, “Targeting P2Y14R protects against necroptosis of intestinal epithelial cells through PKA/CREB/RIPK1 axis in ulcerative colitis” (Nature Communications, 2024).
Several values for one entry are separate records, joined by “and”; a condition that tells them apart may be missing. Equal values may be shown once.

Tests used:
MLKL phosphorylation [1] = assay: Immunoblotting of p-MLKL/MLKL in HCT-116 cells; format: cell-based, human; conditions: P2Y14R-OE cells + TSZ, replicates, supplement Figure 2g
Description: (§1) Tissues and cells were lysed using RIPA lysis buffer (Beyotime Biotechnology) containing protease and phosphatase inhibitor, homogenated, and centrifuged. The protein concentration was determined by BCA protein assay (Beyotime Biotechnology). Equal concentrations of proteins were separated in a 10% SDS-PAGE and transferred to PVDF membrane. […] Densitometry was quantified using ImageJ software.

MLKL phosphorylation [2] = assay: Immunoblotting of p-MLKL/MLKL in HT-29 cells; format: cell-based, human; conditions: P2Y14R-OE cells + TSZ, replicates, supplement Figure 2e
Description: as §1

intestinal organoids = assay: TSZ-induced necroptosis in intestinal organoids (PI staining); format: cell-based, mouse; conditions: P2Y14Rfl/fl organoids, UDPG+TSZ
Description: Crypts were released from the murine small intestine by incubation for 30 min at 4°C in PBS containing 2 mM EDTA. Isolated crypts were counted and pelleted. […] Organoid media were changed every 3 days. […] Dead cell imaging in live organoids was performed on the fluorescence microscope (BX53, Olympus Optical), and analyzed by image j.

[3] = system: CREB binding to Ripk1 promoter; assay: ChIP-qPCR with anti-CREB on Ripk1 gene promoter in HCT-116 cells; format: cell-based, human
Description: (§2) Total RNA was extracted from cells or colonic tissues using Trizol (Thermo) under the manufacturer’s instructions. First strand cDNA was synthesized using the PrimeScript RT Reagent Kit (480, Abm). SYBR Green Master Mix reagents (Q331-02, Vazyme) and primer mixtures (Table S1) were used for the real-time PCR. […] The procedure was as described in the kit provided by the manufacturer. Briefly, isolated IECs were fixed by 1% formaldehyde, and fragmented by sonication. CREB was then used for immunoprecipitation. After washing and reverse-crosslinking, the precipitated DNA was amplified by primers and quantified by the qPCR. Primer sequences can be found in Supplementary Table 1.

Ripk1 mRNA [4] = assay: RT-PCR of Ripk1 mRNA in intestinal epithelial cells of experimental colitis mice; format: in vivo, mouse; conditions: Figure 7i, group TSZ+UDPG+Nec-1s
Description: Colon tissues derived from the euthanized by carbon dioxide inhalation mice were opened longitudinally and washed in pre-cooling PBS for three times. Then, the tissues were cut into 3 mm^2 pieces and incubated with 5 mM EDTA solution in PBS on a constant temperature shaker at 200 rpm for 25 min at 37°C. Then, let it stand at room temperature for 30 seconds and collected the supernatant. Next, repeated the above process once. Supernatants from the above step were combined and centrifuged at 500 g for 8 min. Abandon the supernatants and obtain IECs.
as §2

Ripk1 mRNA [5] = assay: RT-PCR of Ripk1 mRNA in HT-29 cells; format: cell-based, human
Description: as §2

Ripk1 mRNA [6] = assay: RT-PCR of Ripk1 mRNA in HCT-116 cells; format: cell-based, human
Description: as §2

[7] = system: PKA and CREB phosphorylation; assay: Immunoblotting of p-PKA and p-CREB in HT-29 cells; format: cell-based, human
Description: as §1

HCT-116 cells = assay: TSZ-induced necroptosis in HCT-116 cells (PI/Hoechst staining); format: cell-based, human
Description: (§3) Necroptosis was induced by pretreatment with TNF‐α (20 ng·mL^−1) plus z‐VAD‐fmk (20 μM) and Smac mimetic (BV6, 2 μM) for 8 h, then stained cells with hematoxylin/eosin. For PI/Hoechst staining, cells were stained with PI and Hoechst for 20 min, then photographed with a fluorescence microscope and at least 300 cells were counted. The ratio of PI positive cells (%) = (PI positive cells) / (Hoechst positive cells) × 100%. For cell viability assay, CCK8 was added to the well and incubated for 1 − 2 h and then OD450 was measured using a multi-mode microplate reader (Cytation5, BioTek).

[8] = system: PKA and CREB phosphorylation; assay: Immunoblotting of p-PKA and p-CREB in HCT-116 cells; format: cell-based, human
Description: as §1

HT-29 cells = assay: TSZ-induced necroptosis in HT-29 cells (CCK8 viability, PI/Hoechst, H&E staining); format: cell-based, human
Description: as §3

[9] = system: CREB binding to Ripk1 promoter; assay: ChIP-qPCR with anti-CREB on Ripk1 gene promoter in HT-29 cells; format: cell-based, human
Description: as §2

[10] = HCT-116 cells, UDPG+TSZ, pre-treatment
[11] = HT-29 cells, UDPG+TSZ, pre-treatment

Compound: CN1C(=O)NC(Cc2c[nH]c3c(Cl)cccc23)C1=O (centres unmarked) [Nec-1s]
- P-MLKL/MLKL (MLKL phosphorylation [1]): 2.175 and 2.507 and 2.289 and 2.573 and 2.48
- P-MLKL/MLKL (MLKL phosphorylation [2]): 2.79 and 2.6518 and 3.608 and 1.739 and 2.51
- UDPG-increased TSZ necroptosis in organoids (intestinal organoids): remarkably attenuated this damage
- CREB binding Ripk1 promoter ([3]; Figure 5p, added to TSZ+UDPG): 42.22% and 33.74% and 27.53%
- Decrease of binding between CREB and Ripk1 promoter (ChIP) [3, 10]: did not affect this process
- Expression of Ripk1 in IEC, 2^△△CT (Ripk1 mRNA [4]): 1.11 and 1.102 and 0.9517 and 0.9698 and 1.16
- Ripk1 transcript (mRNA) (Ripk1 mRNA [5]; [11]): showed no effect
- Expression of Ripk1 in HT-29 cell, 2^△△CT (Ripk1 mRNA [5]; added to TSZ+UDPG): 3.657 and 4.786 and 3.641 and 3.399 and 4.214 and 3.302
- Ripk1 transcript (mRNA) (Ripk1 mRNA [6]; [10]): showed no effect
- Expression of Ripk1 in HCT-116 cell, 2^△△CT (Ripk1 mRNA [6]; added to TSZ+UDPG): 2.77 and 2.8504 and 2.771 and 2.541 and 2.7034
- Phosphorylation level of PKA/CREB pathway ([7]; UDPG+TSZ): did not affect the phosphorylation level of PKA/CREB pathway
- P-CREB/CREB ([7]; added to UDPG+TSZ, Figure 5k): 0.2673 and 0.2178 and 0.2551 and 0.2611 and 0.3759
- UDP-glucose derived damage on TSZ-stimulated necroptosis (HCT-116 cells; HCT-116 cells, UDPG+TSZ): remarkably attenuated the UDP-glucose derived damage on TSZ-stimulated necroptosis
- PI positive (%) (HCT-116 cells; P2Y14R-OE cells + TSZ, replicates, supplement Figure 2f): 1.2% and 1.6% and 3.0%
- TSZ-stimulated necroptosis (HCT-116 cells; P2Y14R-overexpression HCT-116 cells, pre-treated): alleviated this phenomenon
- P-PKA/PKA ([8]; Figure 5n, second block, added to UDPG+TSZ): 0.2244 and 0.2706 and 0.2071 and 0.4048 and 0.2633
- Phosphorylation level of PKA/CREB pathway ([8]; UDPG+TSZ): did not affect the phosphorylation level of PKA/CREB pathway
- UDP-glucose derived damage on TSZ-stimulated necroptosis (HT-29 cells; HT-29 cells, UDPG+TSZ): remarkably attenuated the UDP-glucose derived damage on TSZ-stimulated necroptosis
- Cell viability (HT-29 cells; P2Y14R-OE cells + TSZ, replicates): 99.7919 and 100.274 and 99.3783 and 100.966 and 100.911 and 101.005
- PI positive (%) (HT-29 cells; P2Y14R-OE cells + TSZ, replicates, supplement Figure 2c): 6.21% and 5.544% and 2.585%
- TSZ-stimulated necroptosis (HT-29 cells; P2Y14R-overexpression HT-29 cells, 1h pre-treatment, TSZ 8 h): alleviated TSZ stimulated IECs necroptosis
- CREB binding Ripk1 promoter ([9]; Figure 5m, added to TSZ+UDPG): 4.90% and 6.57% and 1.83%
- Decrease of binding between CREB and Ripk1 promoter (ChIP) [9, 11]: did not affect this process
